Each structure is given as a SMILES string.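 1) Cells in 96-well plates. 2) Compound, 48 h, 5 concentrations. 3) Linear interpolation between surrounding doses. 4) Unreached endpoint = highest concentration. The concentration for 50% growth inhibition is given as GI50.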 Calls of active or inactive are those of the source. No stated cut-off is given here; in the data, active = GI50 up to about 1.1 µM and inactive = higher. A value given as a limit tells only on which side of the number the result lay.

The text below walks through data of ChEMBL document CHEMBL1201862, “PubChem BioAssay data set” (2004).

Some test systems named below: HCC 2998; HCT-15; HL-60; HOP-92; LOX IMVI; OVCAR-4; RPMI-8226; SF-295; SK-MEL-2; SK-MEL-5; SN12C; SNB-19; SNB-75; SW-620; UACC-257; EKVX; IGROV-1; M14; SF-539; UACC-62.
Assay in all cases: NCI tumour cell line growth inhibition, 48 h

For the molecule `CN1NC(c2ccccc2)=C(C#N)C(=O)CC1c1ccc(F)cc1` (configuration not stated), the GI50 was > 100 µM (inactive) with HCC 2998; above 100 µM in the test on HCT-15; > 100 µM (inactive) with HL-60; > 100 µM (inactive) with HOP-92; > 100 µM (inactive) in the test on LOX IMVI; > 100 µM (inactive) with OVCAR-4. Also, the GI50 with RPMI-8226, in the test on SF-295, with SK-MEL-2, with SK-MEL-5, with SN12C and in the test with SNB-19 was > 100 µM (inactive) throughout. The GI50 is 41.3 µM (inactive) with SNB-75, > 100 µM (inactive) in the test on SW-620 and > 100 µM (inactive) in the test with UACC-257.

Turning to `N#CCCC1C(C#N)C2(Cl)CC1(Cl)C(Cl)=C2Cl` (configuration not stated), the GI50 was > 10 µM (inactive) in the test with EKVX; > 10 µM (inactive) in the test on HCC 2998; above 10 µM in the test on HCT-15; > 10 µM (inactive) in the test on HL-60; > 10 µM (inactive) with IGROV-1; > 10 µM (inactive) in the test on LOX IMVI. Moreover, the GI50 in the test with M14, in the test on OVCAR-4, with RPMI-8226, in the test on SF-295, in the test on SF-539 and in the test on SK-MEL-2 was > 10 µM (inactive) in each case. For the same molecule, the GI50 in the test on SK-MEL-5, with SN12C, in the test on SNB-19, with SNB-75, in the test with SW-620 and in the test with UACC-62 was > 10 µM (inactive) in each case.

With `COC(C/C=C\C=C\CC/C=C/CC(C)/C=C/C(=C\C(=O)O)CC(=O)O)/C(C)=C\C=C(/C)C(=O)O` (configuration not stated), the GI50 in the test on EKVX is 28.4 µM (inactive); in the test with HCC 2998, > 100 µM (inactive); in the test on HCT-15 it was above 100 µM; in the test on HOP-92 it was > 100 µM (inactive); in the test on IGROV-1, > 100 µM (inactive); in the test on M14 it was > 100 µM (inactive). In addition, the GI50 in the test with OVCAR-4 is > 100 µM (inactive); in the test with RPMI-8226, > 100 µM (inactive); in the test on SF-295, > 100 µM (inactive); in the test on SK-MEL-2, > 100 µM (inactive); in the test with SK-MEL-5, 99.3 µM (inactive); in the test on SN12C, > 100 µM (inactive). The GI50 is > 100 µM (inactive) in the test on SNB-19; 58.3 µM (inactive) in the test on SNB-75; > 100 µM (inactive) with SW-620; > 100 µM (inactive) with UACC-257; > 100 µM (inactive) in the test with UACC-62.

For the molecule `Cc1ccc(/N=N/NCCCCN/N=N/c2ccc(C)cc2)cc1`, the GI50 with EKVX was > 100 µM (inactive); in the test with HCC 2998, 13.9 µM (inactive); in the test on HCT-15 it was 4.93 µM; in the test with HL-60, 1.75 µM (inactive); in the test on HOP-92, 25.3 µM (inactive); in the test with IGROV-1, 12.5 µM (inactive). Further, the GI50 was 1.17 µM (inactive) in the test with LOX IMVI; 8.05 µM (inactive) in the test with M14; > 100 µM (inactive) in the test on OVCAR-4; 8.22 µM (inactive) in the test on SF-295; > 100 µM (inactive) in the test on SF-539; > 100 µM (inactive) in the test on SK-MEL-2. Besides, the GI50 in the test on SK-MEL-5 was 23.4 µM (inactive); in the test with SN12C it was > 100 µM (inactive); with SNB-75 it was > 100 µM (inactive); with SW-620, > 100 µM (inactive); with UACC-257 it was > 100 µM (inactive); in the test on UACC-62, > 100 µM (inactive).

Take `Cc1cn(C2CC(O)C(Cn3nncc3Cn3ncc(=O)[nH]c3=O)O2)c(=O)[nH]c1=O` (configuration not stated): the GI50 is > 100 µM (inactive) in the test on EKVX; > 100 µM (inactive) in the test on HCC 2998; above 100 µM with HCT-15; > 100 µM (inactive) with HOP-92; > 100 µM (inactive) with IGROV-1; > 100 µM (inactive) in the test on LOX IMVI. Besides, the GI50 in the test with M14, in the test on OVCAR-4, in the test on RPMI-8226, with SF-295, with SF-539 and in the test with SK-MEL-2 was > 100 µM (inactive) in each case. In addition, the GI50 in the test with SK-MEL-5, in the test with SN12C, with SNB-19, in the test with SW-620, with UACC-257 and in the test on UACC-62 was > 100 µM (inactive) throughout.

`CC[N+]1(C)CCC(O)(c2ccc(Cl)cc2)C(C(=O)c2ccc(Cl)cc2)C1` (configuration not stated): the GI50 in the test on EKVX is > 10 µM (inactive); in the test with HCC 2998 it was 19.9 µM (inactive); in the test with HCT-15, 22 µM; in the test on HL-60, 7.83 µM (inactive); in the test on HOP-92, > 10 µM (inactive); in the test on IGROV-1 it was 18.5 µM (inactive). Also, the GI50 is 5.58 µM (inactive) in the test with LOX IMVI; 17.4 µM (inactive) in the test with M14; 29.3 µM (inactive) in the test with OVCAR-4; 1.73 µM (inactive) in the test with RPMI-8226; > 10 µM (inactive) in the test on SF-295; 22.1 µM (inactive) with SN12C. Further, the GI50 was 17.2 µM (inactive) with SNB-19; > 10 µM (inactive) with SNB-75; 1.82 µM (inactive) in the test on SW-620; 24.4 µM (inactive) in the test on UACC-257; 14.7 µM (inactive) in the test on UACC-62.

For the molecule `CCCCOC(=O)CN1C(=O)c2ccccc2C1=O`, the GI50 is > 100 µM (inactive) with EKVX; > 100 µM (inactive) in the test with HCC 2998; above 100 µM in the test with HCT-15; > 100 µM (inactive) with HL-60; > 100 µM (inactive) in the test on HOP-92; > 100 µM (inactive) in the test on IGROV-1. Besides, the GI50 with LOX IMVI, with M14, with OVCAR-4, with SF-295, with SF-539 and in the test with SK-MEL-2 was > 100 µM (inactive) in each case. Moreover, the GI50 in the test on SK-MEL-5, in the test on SNB-19, with SNB-75, with SW-620, in the test on UACC-257 and with UACC-62 was > 100 µM (inactive) in each case.

For the molecule `CC1(C)CCc2cc3c(-c4ccccc4)cc(=O)oc3cc2O1`, the GI50 in the test on EKVX was > 100 µM (inactive); in the test with HCT-15, above 100 µM; with HL-60, > 100 µM (inactive); in the test with HOP-92, 21.1 µM (inactive); with IGROV-1, > 100 µM (inactive); in the test on LOX IMVI, > 100 µM (inactive). The GI50 with M14 was > 100 µM (inactive); in the test on RPMI-8226 it was > 100 µM (inactive); with SF-295, 48.3 µM (inactive); with SF-539, 38.5 µM (inactive); with SK-MEL-2 it was > 100 µM (inactive); in the test on SK-MEL-5 it was > 100 µM (inactive). In addition, the GI50 in the test on SN12C was > 100 µM (inactive); with SNB-19 it was 87.5 µM (inactive); in the test with SNB-75, 13.7 µM (inactive); with SW-620, > 100 µM (inactive); with UACC-62 it was > 100 µM (inactive).

As for `COC(c1ccc(C(C)(C)C)cc1)(c1ccc(C(C)(C)C)cc1)c1cc(C(O)(c2cc(C(OC)(c3ccc(C(C)(C)C)cc3)c3ccc(C(C)(C)C)cc3)c(C)cc2C)c2cc(C(OC)(c3ccc(C(C)(C)C)cc3)c3ccc(C(C)(C)C)cc3)c(C)cc2C)c(C)cc1C`, the GI50 in the test on EKVX was > 100 µM (inactive); with HCC 2998, > 100 µM (inactive); in the test with HCT-15, above 100 µM; with HL-60, > 100 µM (inactive); in the test on HOP-92, > 100 µM (inactive); in the test on IGROV-1, > 100 µM (inactive). The GI50 in the test with LOX IMVI, in the test on M14, in the test on OVCAR-4, with SF-295, in the test on SF-539 and in the test on SK-MEL-2 was > 100 µM (inactive) in each case. Also, the GI50 in the test on SK-MEL-5 was > 100 µM (inactive); in the test with SNB-75, 28.3 µM (inactive); with SW-620, > 100 µM (inactive); in the test with UACC-257, > 100 µM (inactive); in the test on UACC-62, > 100 µM (inactive).

For the molecule `Cc1ccc(Cl)cc1/N=N/C(=O)NNc1cc(Cl)ccc1C`, the GI50 with HCC 2998 is 40.4 µM (inactive); with HCT-15, 17.1 µM; with HL-60, 58.9 µM (inactive); in the test with HOP-92 it was 15.5 µM (inactive); in the test with IGROV-1, 15.3 µM (inactive); with M14, 14.5 µM (inactive). In addition, the GI50 in the test with RPMI-8226 is 19.9 µM (inactive); in the test on SF-295 it was 19.4 µM (inactive); with SK-MEL-2, 13.9 µM (inactive); with SK-MEL-5, 14.2 µM (inactive); with SN12C, 29.4 µM (inactive); in the test with SNB-19, 19.4 µM (inactive). Further, the GI50 in the test on SNB-75 was 13.1 µM (inactive); in the test on UACC-62, 11.2 µM (inactive).

As for `O=c1c2ccccc2[nH]c2cc(O)cc(O)c12`, the GI50 in the test on HCC 2998 is 50.2 µM (inactive); in the test with HCT-15, 55.6 µM; with HL-60, > 100 µM (inactive); in the test with IGROV-1, < 0.01 µM (active); with LOX IMVI, 32.1 µM (inactive); in the test on M14, 91 µM (inactive). In addition, the GI50 with OVCAR-4 was > 100 µM (inactive); with SF-295 it was 42.9 µM (inactive); in the test with SF-539, 41.5 µM (inactive); in the test with SK-MEL-2, 81.7 µM (inactive); in the test with SK-MEL-5, 19.1 µM (inactive); in the test with SN12C, 61.4 µM (inactive). The GI50 in the test with SNB-19 is > 100 µM (inactive); in the test on SNB-75, 47.9 µM (inactive); with UACC-257, 45 µM (inactive); with UACC-62, > 100 µM (inactive).

For the molecule `CCOc1ccc(C(C)c2cc3c(cc2OC)OCO3)cc1` (configuration not stated), the GI50 in the test on HCC 2998 was 0.466 µM (active); in the test on HCT-15, 0.299 µM; in the test with HOP-92, 0.855 µM (active); in the test on IGROV-1, 2.75 µM (inactive); with LOX IMVI it was 0.259 µM (active); in the test on M14 it was 0.361 µM (active). Moreover, the GI50 was > 100 µM (inactive) in the test on OVCAR-4; 0.427 µM (active) in the test on RPMI-8226; 0.0828 µM (active) in the test on SF-295; 0.271 µM (active) with SF-539; 0.269 µM (active) in the test on SK-MEL-5; 0.484 µM (active) in the test on SN12C. The GI50 with SNB-19 is 0.561 µM (active); in the test on SNB-75, 0.277 µM (active); in the test on SW-620, 0.259 µM (active); with UACC-257, 0.767 µM (active); in the test with UACC-62 it was 0.376 µM (active).
